Columns and labels:
Vanin-1 [1] = experiment: In vivo measurement of Vanin-1 inhibitory activity in sera and kidney tissues using hamsters; set-up: species or system Syrian hamsters; conditions: hamster, 10 mg/kg subcutaneous injection; for Vanin-1 activity in kidney tissue extracts 1 hour after administration / Vanin-1 activity in kidney tissue extracts 4 hours after administration: kidney tissue extract; for Vanin-1 activity in kidney tissue extracts 1 hour after administration: 1 hour (FIG. 5b); for Vanin-1 activity in kidney tissue extracts 4 hours after administration: 4 hours (FIG. 5b); for Vanin-1 activity in sera 1 hour after administration / Vanin-1 activity in sera 4 hours after administration: serum; for Vanin-1 activity in sera 1 hour after administration: 1 hour (FIG. 5a); for Vanin-1 activity in sera 4 hours after administration: 4 hours (FIG. 5a)
Method: The pantotheine ketone derivatives obtained in Example 1 and Comparative Example 1 were used as a Vanin-1 inhibitor to measure Vanin-1 inhibitory activity in vivo as follows.
An assay buffer and substrate were the same as those used in the in vitro measurement of activity described above. Hamsters used were 6-week-old male Syrian hamsters purchased from Japan SLC.
The pantotheine ketone derivatives of Example 1 and Comparative Example 1 at a dose of 10 mg/kg were each administered by subcutaneous injection in the backs of different hamsters, and 1 hour and 4 hours after the administration, blood collection and kidney removal were performed under anesthesia. The blood and kidney of the normal hamsters were indicated as Normal. The blood was refrigerated overnight at 4° C. and then centrifuged at 3000 rpm for 20 minutes at 4° C., and the supernatant was used as serum. The kidney was homogenized in an assay buffer in an amount 10 times the tissue weight, and centrifuged at 8000 rpm for 30 minutes at 4° C., and the supernatant was used as a kidney tissue extract. Proteins in the kidney tissue were quantified by using a BCA protein assay (Thermo Fishers Scientific).
Vanin-1 inhibitory activity was measured in accordance with the following steps 1 to 7 of: • 1. introducing 80 μL of assay buffer in a 96-well black plate, • 2. adding 10 μL of serum or kidney tissue extract to the wells containing the assay buffer, • 3. adding 10 μL of 1 mM Pantothenate-AMC to the wells from the step [2.], • 4. measuring at Ex=390 nm and Ex=465 nm before incubation, • 5. incubating at 37° C. for 30 minutes, • 6. measuring at Ex=390 nm and Ex=465 nm, • 7. subtracting fluorescence after 0 minute incubation, from fluorescence value after 30 minutes incubation, and calculating enzyme unit (U) using as an index the amount of AMC produced per minute with respect to the fluorescence value of 40 μM AMC as a reference. The Vanin-1 activity in the kidney tissue extracts was further calculated to normalize by the protein concentration. (Results)

[2] = test system: vascular intimal thickening after aorta transplantation; conditions: rat; 3 mg/mL in drinking water (Non-patent literature 2); cited from earlier work
Vanin-1 [3] = target: T1, Vanin-1 (Homo sapiens, UniProt O95497); experiment: In vitro measurement of Vanin-1 inhibitory activity, screening using human serum with Pantothenate-AMC substrate; format: biochemical; conditions: for IC50: 37° C., 30 minutes incubation, Pantothenate-AMC; for Vanin-1 inhibitory activity relative to that of Comparative Example 1: ratio to Comparative Example 1
T1 construct: For use as human serum, “normal human serum” was purchased from KOHJIN BIO (product number: 12181211); tissue KOHJIN BIO 12181211; host or cells: normal human serum
T1 sequence (O95497 22-491): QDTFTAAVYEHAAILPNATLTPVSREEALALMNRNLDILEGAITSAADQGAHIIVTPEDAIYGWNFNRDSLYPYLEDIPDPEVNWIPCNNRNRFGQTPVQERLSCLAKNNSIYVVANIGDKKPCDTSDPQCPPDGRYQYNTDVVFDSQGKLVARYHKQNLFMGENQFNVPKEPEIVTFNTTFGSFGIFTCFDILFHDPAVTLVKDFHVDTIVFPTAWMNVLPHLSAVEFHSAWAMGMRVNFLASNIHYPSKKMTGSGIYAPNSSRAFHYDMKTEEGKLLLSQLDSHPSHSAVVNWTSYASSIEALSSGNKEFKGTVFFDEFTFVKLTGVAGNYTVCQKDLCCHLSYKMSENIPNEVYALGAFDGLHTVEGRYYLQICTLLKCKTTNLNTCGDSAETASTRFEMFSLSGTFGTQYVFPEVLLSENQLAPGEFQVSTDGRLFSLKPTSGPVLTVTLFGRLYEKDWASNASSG
Method: The pantotheine ketone derivatives obtained in Examples 1 to 5 and Comparative Examples 1 to 9 were used as a Vanin-1 inhibitor to measure Vanin-1 inhibitory activity in vitro as follows.
A 9 g/package phosphate buffer powder (1/15 molL^−1=66 mM, Wako Pure Chemical) was dissolved in 1 L of distilled water to produce an assay buffer. Pantothenate-AMC serving as a substrate was synthesized according to protocols as described in Analytical Biochemistry 2010; 399: 284-292. For use as human serum, “normal human serum” was purchased from KOHJIN BIO (product number: 12181211).
Vanin-1 inhibitory activity was measured in accordance with the following steps 1 to 8 of: • 1. introducing 79 μL of assay buffer in a 96-well black plate, • 2. adding 10 μL of human serum to the wells containing the assay buffer, • 3. adding 1 μL of each Vanin-1 inhibitor (10^−7 M to 10^−2 M in DMSO) or 1 μL of DMSO to the wells from the step [2.], • 4. adding 10 μL of 1 mM Pantothenate-AMC to the wells from the step [3.], • 5. measuring at Ex=390 nm and Ex=465 nm before incubation, • 6. incubating at 37° C. for 30 minutes, • 7. measuring at Ex=390 nm and Ex=465 nm, • 8. subtracting fluorescence after 0 minute incubation, from fluorescence after 30 minutes incubation, to express Vanin-1 inhibitory activity of each inhibitor in percent with respect to that of DMSO being 100%. (Results)

Compound | IC50 (Vanin-1 [3]) | Vanin-1 inhibitory activity in vitro (comparison in words, FIGS. 1 to 4) (Vanin-1 [3]) | Vanin-1 inhibitory activity relative to that of Comparative Example 1 (Vanin-1 [3]) | Vanin-1 activity in kidney tissue extracts 1 hour after administration (Vanin-1 [1]) | Vanin-1 activity in kidney tissue extracts 4 hours after administration (Vanin-1 [1]) | Vanin-1 activity in sera 1 hour after administration (Vanin-1 [1]) | Vanin-1 activity in sera 4 hours after administration (Vanin-1 [1]) | Effect on vascular intimal thickening after aorta transplantation [2]
CC(C)(CO)[C@@H](O)C(=O)NCCC(=O)Cc1ccccc1 [Comparative Example 1, reference compound] | 780 nM | – | – | same as the normal value | same as the normal value | suppressed | returned to normal value | suppressive effect on vascular intimal thickening
CC(C)(CO)[C@@H](O)C(=O)NCCC(=O)Cc1cccc2ccccc12 [Comparative Example 7] | – | lower than that of Comparative Example 1 | – | – | – | – | – | –
C/C(O)=C/C(=O)CCNC(=O)[C@H](O)C(C)(C)CO [Comparative Example 8] | – | lower than that of Comparative Example 1 | – | – | – | – | – | –

Further lines, with some results ahead:

IC50 (Vanin-1 [3]) | Vanin-1 inhibitory activity in vitro (comparison in words, FIGS. 1 to 4) (Vanin-1 [3]) | Vanin-1 inhibitory activity relative to that of Comparative Example 1 (Vanin-1 [3]) | Compound | Vanin-1 activity in kidney tissue extracts 1 hour after administration (Vanin-1 [1]) | Vanin-1 activity in kidney tissue extracts 4 hours after administration (Vanin-1 [1]) | Vanin-1 activity in sera 1 hour after administration (Vanin-1 [1]) | Vanin-1 activity in sera 4 hours after administration (Vanin-1 [1]) | Effect on vascular intimal thickening after aorta transplantation [2]
– | lower than that of Comparative Example 1 | – | CC(C)(CO)[C@@H](O)C(=O)NCCC(=O)Cc1ccc2ccccc2c1 [Comparative Example 6] | – | – | – | – | –
– | lower than that of Comparative Example 1 | – | C=C=CC(=O)CCNC(=O)[C@H](O)C(C)(C)CO [Comparative Example 9] | – | – | – | – | –
35 nM | very high Vanin-1 inhibitory activity | about 20 times | CC(C)(CO)[C@@H](O)C(=O)NCCC(=O)Cc1ccc(OC(F)(F)F)cc1 [Example 1, (R)-2,4-dihydroxy-3,3-dimethyl-N-[3-oxo-4-(4-trifluoromethoxyphenyl)butyl]butanamide] | able to inhibit Vanin-1 | returned to the normal value | suppressed Vanin-1 activity lower than that of Comparative Example 1 | suppressed below the normal value | –
120 nM | very high Vanin-1 inhibitory activity | about 6 times | CC(C)(CO)[C@@H](O)C(=O)NCCC(=O)Cc1ccc(F)cc1 [Example 2] | – | – | – | – | –
